“Also recorded” adds a separate entry of the source.
Key:
Ras = assay: Soluble/cytoplasmic Ras level in frontal cortex of alpha-synuclein transgenic mice (immunoblot); assay type: in vivo, mouse; settings: 0.09 mg/kg or 9 mg/kg b.i.d., 3 months
Method: The level of inhibition of Ras in brain by LNK-754-TS, dosed at an efficacious dose for efficacy in animal models of proteinopathy-dependent neurodegeneration, was investigated. Alpha-synuclein transgenic mice were treated for 3 months b.i.d. with vehicle or LNK-754-TS at 0.09 mg/kg or 9 mg/kg. Cortical tissue was extracted and homogenized, followed by isolation of soluble/cytosolic proteins in detergent-free buffer (50 mM Tris-HCl pH 7.4, 140 mM NaCl, 2 mM EDTA, Protease inhibitor cocktail) by centrifugation. 15 micrograms of protein lysate was analyzed per lane of SDS-PAGE gel, and immunoblotted for Ras and actin (FIG. 6). Densitometry was used to quantify the Ras/actin ratio for each sample, and results were plotted (FIG. 7). […] This contrasts with what is observed in xenograft cancer models, where inhibition of Ras farnesylation by high dose FTIs is directly correlated with efficacy (FIG. 3 and Example 3).

p70 S6 kinase (S6K) = assay: p70S6K phosphorylation in SH-SY5Y cells; assay type: cell-based, human; settings: FIG. 8f
aged non-transgenic rats = assay: Morris water maze in aged non-transgenic rats; assay type: in vivo, rat; settings: aged rats (22 months old), 0.3 mg/kg and 0.9 mg/kg once every 24 hours
Description: Morris water maze (MWM) analysis of cognitive performance: In APP/PS1 transgenic animals, swimming behavior in a Morris Water Maze was videotaped and analyzed (Ethovision, Noldus, Wageningen, Netherlands). For mice, a place navigation test was used to locate the hidden platform in five blocks of three trials over three consecutive days. Each trial consists of a forced swim test of maximum 120 seconds, followed by 60 seconds of rest. The time each mouse needed for location of the platform was measured. For rats, a cued learning phase was first conducted, consisting of 3 trials per day for 5 days, using a visible platform of varying location. Each trial consisted of a forced swim test of maximum 60 seconds, followed by 10 minutes of rest. The time and path length each rat needed to locate the platform was measured.
In order to rule out the possibility that the rapid observed improvement in cognition described above arose from an alternative, transgene-independent mechanism, aged non-transgenic rats (22 months old) were treated with LNK-754-TS (0.3 mg/kg and 0.9 mg/kg, once every 24 hours) and their cognitive performance was measured by MWM and compared to that of younger rats (3 months old) of the same strain.

Atg1 = assay: mRNA levels of autophagy-related genes (Atg1) in SH-SY5Y cells; assay type: cell-based, human; settings: 100 nM (FIG. 8d)
Method: (§1) Quantitative real-time PCR: Gene expression profiles were done by qPCR on series of known autophagy genes. RNA was extracted with Tri-reagent (Sigma), and cDNAs generated using iScript (Biorad). qPCR analysis was carried out in a 96 well plate using an iCycler (BioRad, Hercules, Calif.), and iQ SYBR Green Supermix (Biorad) according to the manufacturer's specifications.
The mechanism of autophagy stimulation by LNK-754-TS appears distinct from that of the drug rapamycin. Rapamycin is a well-characterized autophagy stimulator that acts through inhibition of mTOR, a kinase involved in nutrient signaling and regulation of cell growth and survival. […] To further contrast the mechanism of autophagy stimulation by LNK-754-TS to that of rapamycin, a collection of mRNA transcripts of autophagy proteins were measured (FIG. 8d). Selected mRNAs from untreated SH-SY5Y cells were compared to mRNAs from cells treated with LNK-754-TS (100 nM), tipifarnib (100 nM), or rapamycin (1 μM).

LC3 mRNA = LC3 mRNA (qPCR) in differentiated SH-SY5Y cells; assay type: cell-based, human
Method: Cell culture and immunocytochemistry: SH-SY5Y cells were grown in DMEM medium supplemented with 10% FBS and 1% pen/strep at 37° C. and 5% CO2. Cells were differentiated with 10 μM retinoic acid for 48 hr, then treated with the either rapamycin (100 nM or 1 μM) or with 100 nM of either LNK-754-TS or Tipifarnib for 48-72 hr. Cells were then fixed with 4% paraformaldehyde and stained for LC3 (Novus biological, NB100-2331, dilution 1:800) followed by secondary Alexa-564 anti-Rabbit (A-11011).
as §1
Such increases in LC3 mRNA levels are associated in the literature with stimulation of macroautophagy. This supports the hypothesis that at doses as low as 1 nM in this in vitro system there is stimulation of autophagy in these cells.
Autophagy was measured in a neuroblastoma cell culture system by three distinct approaches: quantitation of autophagy-related mRNA's, immunofluorescence microscopy of autophagosomes, and biochemical detection of the microtubule-associated protein 1 light chain 3 (LC3) a key protein that is required for autophagosome formation. Differentiated human neuroblastoma cells (SH-SY5Y) were treated for 72 hr with LNK-754-TS (0.01-100 nM), Zarnestra® (also referred to herein as tipifarnib) (100 nM) or rapamycin (1 μM).

C#Cc1cccc(-c2cc(=O)n(C)c3ccc([C@](O)(c4ccc(Cl)cc4)c4cncn4C)cc23)c1 [LNK-754-TS, (R)-6-[(4-chlorophenyl)-hydroxyl-(1-methyl-1-H-imidazol-5-yl)-methyl]-4-(3-ethynylphenyl)-1-methyl-2-(1H)-quinonlinone (2S,3S)-dihydroxybutanedioate]
effect on Ras farnesylation in brain (Ras): no significant effect
soluble Ras/actin level in cortex vs. vehicle (Ras): No significant differences
decrease / inhibition of p70S6K phosphorylation (p70 S6 kinase (S6K)): did not inhibit
cognitive performance (place learning curves, probe tests) (aged non-transgenic rats): no significant cognitive improvement
mRNA levels of a set of autophagy-related genes (Atg1): unaffected
LC3 mRNA level (LC3 mRNA; 0.01-100 nM, 72 hr (FIG. 8a)): upregulated; also recorded: increased
potency of LC3 transcript upregulation relative to the other two compounds (LC3 mRNA; 72 hr, vs. Zarnestra and rapamycin): most potently
levels of mRNA of LC3 (LC3 mRNA; doses between 1 and 100 nM, 72 hours (FIG. 4)): significant increases

— patent US20110294794A1, “TREATMENT OF PROTEINOPATHIES USING A FARNESYL TRANSFERASE INHIBITOR” (Link Medicine Corporation, priority 2008, published 2011)
